Format in all cases: biochemical
The target of one test is T1, PDGFR β enzyme (Homo sapiens, UniProt P09619).
T1 construct: purchased Invitrogen P3082
Nature of the test: Inhibitory activity to PDGFR β enzyme, HTRF kinEASE TK kit. Particulars: read-out: Inhibition rate % (PDGFR β). As to the method: HTRF kinEASE TK (Cat.62TK0PEC, Cisbio)
PDGFR β enzyme (Cat.P3082, Invitrogen)
1 mL 1×Kinase Buffer includes 200 μL 5×Enzyme buffer, 5 μL 1M MgCl2, 1 μL 1M DTT, 1 μL 1M MnCl2, 20 μL 2500 nM SEB, 773 μL ddH2O.
TK-Substrate and ATP are diluted to 2.5 times of reaction concentration with 1×PDGFR β Kinase Buffer.
5×PDGFR β enzyme working solution is prepared with 1×PDGFR β kinase buffer.
4×Sa-XL665 working solution is prepared with Detection Buffer.
TK-Ab-Cryptate is diluted 100 times with Detection Buffer to use as working solution.

Another test has as its target T2, PI3 K γ (Homo sapiens, UniProt P48736).
T2 construct: purchased Biology, Medicilon
The test can be described thus: Inhibitory activity to PI3K γ, PI 3-Kinase (human) HTRF Assay kit. Particulars: read-out: Inhibition rate % to PI3 K γ. The source says:
Study on the inhibitory activity of the compounds of present invention to PI 3κα, PI3κδ and PI3κγ. Two or three concentrations of the compounds are selected to preliminary screening to calculate respectively the activity inhibition rate of the compounds of corresponding concentrations to enzyme, then the compounds with better activity are selected by preliminary screening for IC50 test.
(§1) PI 3-Kinase (human) HTRF™ Assay kit (Cat.33-017, Millipore)
PI 3k γ (Biology, Medicilon)
4× Reaction Buffer (Cat.33-002, Millipore) is diluted with ddH2O to 1.33×, and 1M DTT is added to make the final concentration as 6.67 mM. For example, 10 μL DTT is added into 500 μL 4× Reaction Buffer, and water is added to 1.5 mL.
The Test compounds are dissolved with DMSO to 1 mM as storage liquid. 2 μL of each of storage liquid is added into 48 μL ddH2O, to obtain the 40 μM compounds solution containing 4% DMSO. After mixing, 3 μL of each of the solution is added into 27 μL 4% DMSO (in ddH2O) to obtain the 4 μM compounds solution. 5 μL of each dilute solution is added into 384-well plates, then the final concentration of the compounds in the 20 μL final kinase reaction system is 10 μM and 1 μM respectively contained 1% DMSO. The dilution methods of compounds are similar to the preliminary screening in IC50 test.
2×PIP2 working fluid is prepared with 1.33× reaction buffer to the final concentration of 20 μM.
The screening concentration of PI 3k γ kinase: 80 ng/well,
(§2) Kinase is diluted with 2×PIP2 operating fluid, the concentration of kinase operating fluid is 2 times of screening concentration.
10 mM ATP is diluted with 1.33× reaction buffer to 400 μM. The concentration of ATP is 100 μM in 20 μL kinase reaction system.
(§3) Stop A and Stop B are mixed according to the proportion of 3:1, and are placed for 2 hours at room temperature to obtain the stop solution available.
(§4) DM C, DM A and DM B are mixed according to the proportion of 18:1:1, and are placed for 2 hours at room temperature to obtain the detection solution available.
A general note: TR-FRET usually uses a lanthanide donor and a delayed reading to cut background.

In another test the target is T3, PI3Kδ (Homo sapiens, UniProt O00329).
T3 construct: purchased Millipore 14-604
T3 sequence (O00329 whole entry): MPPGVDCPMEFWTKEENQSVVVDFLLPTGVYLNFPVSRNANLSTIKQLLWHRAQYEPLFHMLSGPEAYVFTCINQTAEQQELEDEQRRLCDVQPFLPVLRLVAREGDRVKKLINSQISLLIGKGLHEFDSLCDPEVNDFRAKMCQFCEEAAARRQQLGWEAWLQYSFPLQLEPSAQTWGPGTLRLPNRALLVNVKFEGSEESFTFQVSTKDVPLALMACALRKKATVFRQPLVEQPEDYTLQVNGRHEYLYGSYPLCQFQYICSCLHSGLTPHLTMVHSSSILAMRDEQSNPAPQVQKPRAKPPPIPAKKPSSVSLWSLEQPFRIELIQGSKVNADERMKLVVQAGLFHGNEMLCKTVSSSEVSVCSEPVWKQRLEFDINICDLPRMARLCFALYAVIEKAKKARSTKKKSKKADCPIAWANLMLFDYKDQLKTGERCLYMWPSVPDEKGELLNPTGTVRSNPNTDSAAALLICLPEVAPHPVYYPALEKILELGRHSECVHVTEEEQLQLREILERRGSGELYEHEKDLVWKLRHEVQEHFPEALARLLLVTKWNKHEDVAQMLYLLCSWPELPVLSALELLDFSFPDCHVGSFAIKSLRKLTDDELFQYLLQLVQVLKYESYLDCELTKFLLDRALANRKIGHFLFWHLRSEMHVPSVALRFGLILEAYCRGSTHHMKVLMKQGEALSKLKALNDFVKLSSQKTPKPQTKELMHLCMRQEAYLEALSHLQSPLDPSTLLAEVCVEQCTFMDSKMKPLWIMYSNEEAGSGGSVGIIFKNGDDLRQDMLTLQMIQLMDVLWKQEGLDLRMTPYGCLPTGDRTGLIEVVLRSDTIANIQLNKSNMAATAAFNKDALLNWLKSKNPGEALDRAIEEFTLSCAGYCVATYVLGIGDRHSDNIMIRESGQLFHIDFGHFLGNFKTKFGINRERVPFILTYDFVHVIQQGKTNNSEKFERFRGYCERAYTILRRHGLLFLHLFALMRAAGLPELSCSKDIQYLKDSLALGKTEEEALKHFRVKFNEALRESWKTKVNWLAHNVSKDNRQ
T3 sequence (P27986 whole entry partner): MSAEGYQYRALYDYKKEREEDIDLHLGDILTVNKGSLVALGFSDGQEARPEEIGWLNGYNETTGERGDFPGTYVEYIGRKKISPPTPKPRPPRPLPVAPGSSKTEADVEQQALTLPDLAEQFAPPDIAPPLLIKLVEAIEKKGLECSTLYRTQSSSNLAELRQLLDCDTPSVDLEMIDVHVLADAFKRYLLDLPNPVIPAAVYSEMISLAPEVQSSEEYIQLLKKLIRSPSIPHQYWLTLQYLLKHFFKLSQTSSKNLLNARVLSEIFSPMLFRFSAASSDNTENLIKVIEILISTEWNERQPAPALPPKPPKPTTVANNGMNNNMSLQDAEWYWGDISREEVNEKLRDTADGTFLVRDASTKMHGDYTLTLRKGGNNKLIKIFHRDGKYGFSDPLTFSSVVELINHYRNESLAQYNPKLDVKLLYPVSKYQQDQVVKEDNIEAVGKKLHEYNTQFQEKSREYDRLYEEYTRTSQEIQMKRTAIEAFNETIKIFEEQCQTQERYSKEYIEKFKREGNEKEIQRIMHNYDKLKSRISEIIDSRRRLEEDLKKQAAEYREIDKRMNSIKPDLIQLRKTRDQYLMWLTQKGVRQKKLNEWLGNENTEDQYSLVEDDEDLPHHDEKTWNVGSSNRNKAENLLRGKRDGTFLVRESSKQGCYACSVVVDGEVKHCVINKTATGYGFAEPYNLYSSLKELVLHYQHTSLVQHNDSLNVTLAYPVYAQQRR
The test can be described thus: Inhibitory activity to PI3K δ, PI 3-Kinase (human) HTRF Assay kit. Particulars: for inhibition at 1 µM: 1 μM (Table 7); for inhibition at 0.4 µM: 0.4 μM (Table 8); for inhibition at 2 µM: 2 μM (Table 8). The method, then: Study on the inhibitory activity of the compounds of present invention to PI 3κα, PI3κδ and PI3κγ.
as §1
For example, 10 μL DTT is added into 500 μL 4× Reaction Buffer, and water is added to 1.5 mL.
The Test compounds are dissolved with DMSO to 1 mM as storage liquid. 2 μL of each of storage liquid is added into 48 μL ddH2O, to obtain the 40 μM compounds solution containing 4% DMSO. After mixing, 3 μL of each of the solution is added into 27 μL 4% DMSO (in ddH2O) to obtain the 4 μM compounds solution. […]
The screening concentration of PI 3k δ kinase: 2 ng/well,
as §2
The concentration of ATP is 100 μM in 20 μL kinase reaction system.
as §3, §4

[1] abbreviates: read-out: Inhibition rate % to PI3Kδ.
Where [2] appears, read: 10 μM (Table 7), read-out: Inhibition rate % to PI3Kδ.
[3] abbreviates: read-out: Inhibition rate % to PI3K delta.
Where [4] appears, read: 10 μM (Table 8), read-out: Inhibition rate % to PI3K delta.

Molecules are shown by their SMILES. Read-outs that look alike come from different tables or passages of the source.

T2 sequence (P48736 whole entry): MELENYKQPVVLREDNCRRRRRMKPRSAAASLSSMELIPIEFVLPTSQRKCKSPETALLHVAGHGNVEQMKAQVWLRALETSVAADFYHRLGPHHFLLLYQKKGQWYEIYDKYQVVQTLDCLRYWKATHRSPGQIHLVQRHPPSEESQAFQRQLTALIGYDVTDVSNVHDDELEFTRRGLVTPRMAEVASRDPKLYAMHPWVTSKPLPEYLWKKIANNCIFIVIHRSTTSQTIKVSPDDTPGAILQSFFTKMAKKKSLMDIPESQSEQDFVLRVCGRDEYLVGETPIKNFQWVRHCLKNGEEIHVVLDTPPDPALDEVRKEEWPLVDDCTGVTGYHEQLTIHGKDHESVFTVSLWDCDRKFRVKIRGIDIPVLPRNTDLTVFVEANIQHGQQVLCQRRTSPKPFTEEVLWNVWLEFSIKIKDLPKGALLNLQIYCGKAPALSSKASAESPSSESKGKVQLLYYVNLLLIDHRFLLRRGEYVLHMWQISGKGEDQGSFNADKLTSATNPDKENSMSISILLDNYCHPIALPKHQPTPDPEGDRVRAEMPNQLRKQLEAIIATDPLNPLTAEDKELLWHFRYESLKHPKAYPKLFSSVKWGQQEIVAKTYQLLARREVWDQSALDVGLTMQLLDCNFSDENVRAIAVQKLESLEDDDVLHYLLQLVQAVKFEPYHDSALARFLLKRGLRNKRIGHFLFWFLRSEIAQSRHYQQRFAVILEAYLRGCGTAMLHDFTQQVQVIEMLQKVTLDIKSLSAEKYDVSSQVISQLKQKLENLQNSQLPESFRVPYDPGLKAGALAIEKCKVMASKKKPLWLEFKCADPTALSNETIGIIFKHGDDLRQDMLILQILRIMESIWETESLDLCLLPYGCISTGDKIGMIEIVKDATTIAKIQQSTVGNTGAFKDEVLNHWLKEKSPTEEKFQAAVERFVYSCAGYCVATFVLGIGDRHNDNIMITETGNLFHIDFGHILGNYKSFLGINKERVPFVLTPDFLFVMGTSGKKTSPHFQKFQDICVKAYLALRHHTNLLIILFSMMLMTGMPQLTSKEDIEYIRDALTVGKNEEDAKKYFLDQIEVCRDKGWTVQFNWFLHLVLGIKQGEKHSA
T1 sequence (P09619 33-1106): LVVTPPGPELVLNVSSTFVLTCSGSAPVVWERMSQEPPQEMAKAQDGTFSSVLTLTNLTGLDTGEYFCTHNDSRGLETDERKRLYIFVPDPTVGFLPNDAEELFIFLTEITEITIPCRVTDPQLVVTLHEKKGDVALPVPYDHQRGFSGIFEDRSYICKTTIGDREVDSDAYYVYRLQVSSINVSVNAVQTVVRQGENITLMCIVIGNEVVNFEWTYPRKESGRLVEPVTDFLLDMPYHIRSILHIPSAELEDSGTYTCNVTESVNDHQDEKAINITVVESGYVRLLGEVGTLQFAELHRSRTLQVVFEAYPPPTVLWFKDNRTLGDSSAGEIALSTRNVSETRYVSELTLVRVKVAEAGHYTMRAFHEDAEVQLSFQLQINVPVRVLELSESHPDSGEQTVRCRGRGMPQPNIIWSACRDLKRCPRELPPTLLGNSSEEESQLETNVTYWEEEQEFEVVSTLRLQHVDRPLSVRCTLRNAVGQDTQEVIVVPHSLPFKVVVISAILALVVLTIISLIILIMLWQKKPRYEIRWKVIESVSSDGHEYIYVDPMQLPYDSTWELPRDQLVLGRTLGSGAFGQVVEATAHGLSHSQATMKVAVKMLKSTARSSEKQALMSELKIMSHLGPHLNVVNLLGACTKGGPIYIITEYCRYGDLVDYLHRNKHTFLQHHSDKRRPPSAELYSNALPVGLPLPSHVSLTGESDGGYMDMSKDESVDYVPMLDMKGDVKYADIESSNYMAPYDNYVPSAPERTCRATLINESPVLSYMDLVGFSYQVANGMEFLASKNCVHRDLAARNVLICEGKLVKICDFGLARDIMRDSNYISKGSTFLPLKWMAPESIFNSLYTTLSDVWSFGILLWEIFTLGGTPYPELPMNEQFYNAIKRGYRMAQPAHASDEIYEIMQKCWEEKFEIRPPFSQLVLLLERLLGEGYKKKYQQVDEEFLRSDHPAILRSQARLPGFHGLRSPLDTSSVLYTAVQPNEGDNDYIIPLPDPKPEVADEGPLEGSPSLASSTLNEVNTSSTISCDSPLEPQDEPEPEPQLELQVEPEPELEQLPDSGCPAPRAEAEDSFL

As to `COC(=O)C1(Nc2nc(Nc3ccc4nccc(-c5ccccc5)c4c3)nc3[nH]cnc23)CC1` [MED1007-15, 1-(2-(4-phenylquinoline-6-ylamino)-9H-purine-6-ylamino)cyclopropane carboxylic acid methyl ester], the inhibition at 1 µM at PDGFR β enzyme (1 μM) was found to be 31.2%; on PI3 K γ, 10.4%; at PI3Kδ (setting [1]), 1.25%. Besides, the inhibition at 10 µM at PDGFR β enzyme was determined as 93.5%; at PI3 K γ, 19.1%; on PI3Kδ (setting [2]), 8.64%.
Turning to `c1cc(N2CCOCC2)c2cc(Nc3nc(NC4CC4)c4nc[nH]c4n3)ccc2n1` [MED1007-32, N6-cyclopropyl-N2-(4-morpholinequinoline-6-yl)-9H-purine-2,6-diamine], the inhibition at 1 µM was 9.16% at PDGFR β enzyme (1 μM), -13.7% on PI3 K γ and 31% on PI3Kδ (setting [1]). Moreover, the inhibition at 10 µM on PDGFR β enzyme was 24.5%; on PI3 K γ it was 4.28%; on PI3Kδ (setting [2]), 42.1%.
Consider `c1cc(N2CCNCC2)c2cc(Nc3nc(NC4CC4)c4nc[nH]c4n3)ccc2n1` [MED1007-33, N6-cyclopropyl-N2-(4-(piperazine-1-yl)quinoline-6-yl)-9H-purine-2,6-diamine], for which the inhibition at 1 µM on PDGFR β enzyme (1 μM) amounted to 4.71%; at PI3 K γ, 21%; at PI3Kδ (setting [1]), 21.4%. Also, the values for the inhibition at 10 µM on PDGFR β enzyme, on PI3 K γ and on PI3Kδ (setting [2]) were 25.6%, 20% and 63%, respectively.
`CC(C)Oc1nc(Nc2ccc3ncccc3c2)nc2[nH]cnc12` [MED1007-34, N-(6-isopropoxy-9H-purine-2-yl) quinoline-6-amine]: the inhibition at 1 µM on PDGFR β enzyme (1 μM) came to 53.8%; at PI3 K γ, 24.4%; on PI3Kδ (setting [1]), 40.2%. Also, the inhibition at 10 µM at PDGFR β enzyme stood at 98.8%; at PI3 K γ, 57.3%; at PI3Kδ (setting [2]), 69.8%.
In the case of `c1ccc(Oc2nc(Nc3ccc4nccc(N5CCNCC5)c4c3)nc3[nH]cnc23)cc1` [MED1007-54, N-(6-phenoxy-9H-purine-2-yl)-4-(piperazine-1-yl) quinoline-6-amine], the inhibition at 1 µM on PDGFR β enzyme (1 μM) is 7.3%; at PI3 K γ it was -6.81%; at PI3Kδ (setting [1]), 13.3%. Moreover, the inhibition at 10 µM on PDGFR β enzyme was 43.7%; on PI3 K γ, -4.67%; on PI3Kδ (setting [2]), 42.4%.
Turning to `CC(C)Oc1nc(Nc2ccc3nccc(N4CCNCC4)c3c2)nc2[nH]cnc12` [MED1007-58, N-(6-isopropoxy-9H-purine-2-yl)-4-(piperazine-1-yl) quinoline-6-amine], the inhibition at 1 µM at PDGFR β enzyme (1 μM) was 3.93%; at PI3 K γ, -0.29%; at PI3Kδ (setting [1]) it was 2.11%. Besides, the inhibition at 10 µM was 29.5% at PDGFR β enzyme, -0.98% at PI3 K γ and 35% on PI3Kδ (setting [2]).
Consider `COC(=O)c1ccc(-c2ccnc3ccc(Nc4nc(NC5CC5)c5nc[nH]c5n4)cc23)cc1` [MED1007-59, 4-(6-(6-(cyclopropylamino)-9H-purine-2-ylamino)quinoline-4-yl) p-methyl benzoate], for which the values for the inhibition at 1 µM on PDGFR β enzyme (1 μM), at PI3 K γ and at PI3Kδ (setting [1]) were 4.39%, 0.83% and 18%, respectively. The inhibition at 10 µM was 0.93% on PDGFR β enzyme, 4.97% on PI3 K γ and 59% at PI3Kδ (setting [2]).
With `c1ccc(-c2ccnc3ccc(Nc4nc(N5CCOCC5)c5nc[nH]c5n4)cc23)cc1` [MED1007-109, N-(6-morpholine-9H-purine-2-yl)-4-phenyl quinoline-6-amine], on PI3Kδ (setting [3]), the inhibition at 0.4 µM was 22.6% and the inhibition at 2 µM turned out to be 44%. In addition, the inhibition at 10 µM on PI3Kδ (setting [4]) came to 91.6%.
The corresponding values for `Oc1nc(Nc2ccc3nccc(-c4ccccc4)c3c2)nc2[nH]cnc12` [MED1007-110, 2-(4-phenylquinoline-6-ylamino)-9H-purine-6-ol] are 6.26%, 2.94% and 12.6%.
Taken in the same sequence, the figures for `Cc1ccnc2ccc(Nc3nc(NC4CC4)c4nc[nH]c4n3)cc12` [MED1007-113, N6-cyclopropyl-N2-(4-methylquinoline-6-yl)-9H-purine-2,6-diamine dihydrate di-methanesulfonate] were 30%, 37.7% and 68.9%.
`CCc1ccnc2ccc(Nc3nc(NC4CC4)c4nc[nH]c4n3)cc12` [MED1007-114, N6-cyclopropyl-N2-(4-ethylquinoline-6-yl)-9H-purine-2,6 diamine dihydrate di-methanesulfonate]: at PI3Kδ (setting [3]), the inhibition at 0.4 µM is 28.4% and the inhibition at 2 µM was 49.1%. In addition, the inhibition at 10 µM at PI3Kδ (setting [4]) is 78.9%.
The corresponding values for `COc1ccc(-c2ccnc3ccc(Nc4nc(O)c5nc[nH]c5n4)cc23)cc1` [MED1007-132, 2-(4-(4-methoxy-phenyl)quinoline-6-ylamino)-9H-purine-6-ol-methanesulfonate] are -0.76%, 8.54% and 55%.
Taken in the same sequence, the figures for `CC(C)Oc1nc(Nc2ccc3nccc(-c4ccc5c(c4)OCO5)c3c2)nc2[nH]cnc12` [MED1007-133, 4-(benzo[1,3]-dioxole-5-yl)-N-(6-isopropoxy-9H-purine-2-yl) quinoline-6-amine-methanesulfonate] were 20.8%, 69% and 83.4%.
Taken in the same sequence, the figures for `CC(C)Oc1nc(Nc2ccc3nccc(-c4cccc(F)c4)c3c2)nc2[nH]cnc12` [MED1007-135, 4-(3-fluorophenyl)-N-(6-isopropoxy-9H-purine-2-yl) quinoline-6-amine-methanesulfonate] were 27.2%, 59.6% and 83.4%.
Turning to `CC(C)Oc1nc(Nc2ccc3nccc(-c4ccc(F)cc4)c3c2)nc2[nH]cnc12` [MED1007-136, 4-(4-fluorophenyl)-N-(6-isopropoxy-9H-purine-2-yl) quinoline-6-amine-methanesulfonate], at PI3Kδ (setting [3]), the inhibition at 0.4 µM was 15.7% and the inhibition at 2 µM worked out at 44.8%. The inhibition at 10 µM at PI3Kδ (setting [4]) amounted to 80.5%.
Take `COc1ccc(-c2ccnc3ccc(Nc4nc(OC(C)C)c5nc[nH]c5n4)cc23)cc1OC` [MED1007-137, 4-(3,4-dimethoxyphenyl)-N-(6-isopropoxy-9H-purine-2-yl) quinoline-6-amine-methanesulfonate]: on PI3Kδ (setting [3]), the inhibition at 0.4 µM worked out at 27.6% and the inhibition at 2 µM was 63.3%. On PI3Kδ (setting [4]), the inhibition at 10 µM was determined as 99.1%.
Taken in the same sequence, the figures for `Oc1nc(Nc2ccc3nccc(-c4ccc5c(c4)OCO5)c3c2)nc2[nH]cnc12` [MED1007-139, 2-(4-(benzo[1,3]-dioxole-5-yl)quinoline-6-ylamino)-9H-purine-6-ol-methanesulfonate] were 4.29%, 15% and 20.1%.
Take `CN[C@@H]1C[C@H]2O[C@@](C)([C@@H]1OC)n1c3ccccc3c3c4c(c5c6ccccc6n2c5c31)C(=O)NC4` [Staurosporine, reference compound]: the inhibition at 1 µM on PDGFR β enzyme was 99.8%.
